# According to US10739333B2, “Methods of BH3 profiling” (Dana-Farber Cancer Institute, Inc., priority 2013, dated 2020):
# Experiments:
# SuDHL4 cell line = assay: miBH3 profile of the SuDHL4 cell line (FIG. 4); format: cell-based; conditions: FIG. 4A, matches other BH3 profiling methods in FIG. 4B
# Procedure: BH3 profiling can be accomplished at the single cell level by immobilizing cells on a solid surface. Optionally the solid surface is polyamine or poly-lysine coated. Immobilized cells are permeabilized as described above. The cells are then contacted with BH3 peptides and/or test agents. After the cells have been treated for a predetermined period of time such as 45-90 minutes, the cells are fixed and further permeabilized by methods known in the art. For example the cells are fixed with formaldehyde and further permeabilized with methanol or Triton X-100 (t-Octylphenoxypolyethoxyethanol). Outer membrane permeabilization is determined by intracellular staining for molecules from the mitochondrial inter-membrane space and a mitochondrial marker. Examples of molecules that can be measured include cytochrome c, SMAC/Diablo, Omi, adenylate kinase-2 or apoptosis inducing factor (AIF). A mitochondrial marker includes MnSOD. Stained cells can be counterstained with nuclear stains such as DAPI. Optionally other intracellular and extracellular markers can be measured. […]
# MicroBH3 (miBH3) is a BH3 profiling method where the measurement of the mitochondrial effect of […] peptides have on individual cells by microscopy. […] Fixed cells by this method can be readily stopped at the fixation step and can be analyzed weeks after acquisition as well as readily re-analyzed if needed.
# MDA-MB-231 = assay: BH3 profiling in pre-made frozen versus freshly prepared plates (FIG. 5); format: cell-based; conditions: responsive cells MDA-MB-231
# Source text: Also included in the invention are kits for performing BH3 Profiling using whole cells. The kit consists of a multi-well plate containing staining components in a mitochondrial buffer and a tube of mitochondrial buffer for the suspension and dispensing of cells into the plate for analysis. Each well of the multi-well plate contains a mixture of JC-1 dye, oligomycin, 2-mercaptoethanol, digitonin, and a peptide or small molecule at twice their final concentration, Optionally the plate and suspension buffer tube can be frozen for later use along with the suspension buffer tube. To use, the plate and buffer tube are thawed and brought to room temperature. Cells are suspended in buffer, dispensed into the wells of the plate, and analyzed in a fluorescence plate reader using the JC-1 red fluorescence at 590 nm with excitation at 545 nm.
substance,measurement,setting,value
"BAD: BH3 domain peptide LWAAQRYGRELRRMSDEFEGSFKGL, SEQ ID NO 4",release of cytochrome c / loss of correlation between cytochrome c and MnSOD channels,SuDHL4 cell line,Release of cytochrome c and loss of correlation
same,response to peptide treatment in frozen and freshly prepared plates,MDA-MB-231,comparable response
